Among the data in US12655116B2, “Substituted isophthalic acid diamides” (Bayer Aktiengesellschaft, priority 2020, dated 2026) are pest or weed control values, retold here.

Assay [1] concerns ABUTH. Kind of assay: Pre-emergence herbicidal action against ABUTH. The class given is in vivo, Abutilon theophrasti. The settings on record: Abutilon theophrasti, 504 h, 80 g/ha, scored visually after 3 weeks vs untreated controls (100% = plants have died, 0% = like control plants). A digest of the protocol: (§1)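 Seeds sown in sandy loam, soil-covered; compound sprayed on soil surface pre-emergence. Application: WP/EC, 600–800 l/ha, 0.2% wetting agent. Readout: visual % damage at 3 weeks.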

Assay [2] has as its system ALOMY. Kind of assay: Pre-emergence herbicidal action against ALOMY. The format is in vivo, Alopecurus myosuroides. The settings on record: Alopecurus myosuroides, 504 h; 80 g/ha, pre-emergence, scored visually after 3 weeks vs untreated controls (100% = plants have died, 0% = like control plants). A digest of the protocol: as §1
The test system of assay [3] is AMARE. Kind of assay: Pre-emergence herbicidal action against AMARE. The settings on record: Amaranthus retroflexus, 504 h, scored visually after 3 weeks vs untreated controls, 100% = plants have died, 0% = like control plants. The class given is in vivo, Amaranthus retroflexus. Summed up: as §1
Assay [4] concerns AVEFA. Kind of assay: Pre-emergence herbicidal action against AVEFA. The class given is in vivo, Avena fatua. The settings on record: Avena fatua, 504 h; 80 g/ha, pre-emergence. Summed up: as §1
Assay [5] concerns ECHCG. Kind of assay: Pre-emergence herbicidal action against ECHCG. The class given is in vivo, Echinochloa crus-galli. Conditions: Echinochloa crus-galli, 504 h, 80 g/ha. Summed up:
as §1

Assay [6] has as its system HORMU. Kind of assay: Pre-emergence herbicidal action against HORMU. Conditions: Hordeum murinum, 504 h; 80 g/ha, pre-emergence. The class given is in vivo, Hordeum murinum. The source says: Seeds of monocotyledonous and dicotyledonous weed plants and crop plants are laid out in sandy loam soil in wood-fiber pots and covered with soil. The compounds of the invention, formulated in the form of wettable powders (WP) or as emulsion concentrates (EC), are then applied to the surface of the covering soil in the form of an aqueous suspension or emulsion at a water application rate equivalent to 600 to 800 l/ha, with addition of 0.2% wetting agent. After the treatment, the pots are placed in a greenhouse and kept under good growth conditions for the trial plants. The damage to the test plants is scored visually after a test period of 3 weeks by comparison with untreated controls (herbicidal activity in percent (%): 100% activity=the plants have died, 0% activity=like control plants). […] The tables below illustrate, in an illustrative manner, the post-emergence herbicidal action of the compounds of the invention, the herbicidal activity being stated in percent.

Assay [7] concerns MATIN. Kind of assay: Pre-emergence herbicidal action against MATIN. The format is in vivo, Matricaria inodora. Conditions: Tripleurospermum inodorum, 504 h, dosage 80 g/ha. Summed up: as §1
For assay [8], the system named is SETVI. Kind of assay: Pre-emergence herbicidal action against SETVI. The format is in vivo, Setaria viridis. Conditions: Setaria viridis, 504 h, dosage 80 g/ha. Summed up:
as §1

For assay [9], the system named is STEME. Kind of assay: Pre-emergence herbicidal action against STEME. The format is in vivo, Stellaria media. Conditions: Stellaria media, 504 h, dosage 80 g/ha. Summed up:
as §1

Assay [10] has as its system VERPE. Kind of assay: Pre-emergence herbicidal action against VERPE. The format is in vivo, Veronica persica. Conditions: Veronica persica, 504 h. A digest of the protocol:
as §1

Assay [11] has as its system DIGSA. Kind of assay: Pre-emergence herbicidal action against DIGSA. The format is in vivo, Digitaria sanguinalis. The settings on record: Digitaria sanguinalis, 504 h, dosage 80 g/ha. A digest of the protocol:
as §1

Assay [12] concerns ABUTH. Kind of assay: Post-emergence herbicidal action against ABUTH. The format is in vivo, Abutilon theophrasti. Conditions: Abutilon theophrasti, 504 h, visual assessment about 3 weeks after treatment vs untreated controls. A digest of the protocol: (§2)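 Percent herbicidal action is rated by eye about 3 weeks after treatment against untreated controls, where 100% means dead plants and 0% means like controls. Plants in sandy loam are sprayed on green parts at the one-leaf stage with aqueous WP or EC preparations at 600 to 800 l/ha plus 0.2% wetting agent.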

Assay [13] concerns ALOMY. Kind of assay: Post-emergence herbicidal action against ALOMY. The format is in vivo, Alopecurus myosuroides. The settings on record: Alopecurus myosuroides, 504 h, dosage 20 g/ha, visual assessment about 3 weeks after treatment vs untreated controls. Summed up: as §2
The test system of assay [14] is AMARE. Kind of assay: Post-emergence herbicidal action against AMARE. The format is in vivo, Amaranthus retroflexus. The settings on record: Amaranthus retroflexus, 504 h, 20 g/ha, visual assessment about 3 weeks after treatment, 100% = plants have died, 0% = like control plants. A digest of the protocol: as §2
The test system of assay [15] is AVEFA. Kind of assay: Post-emergence herbicidal action against AVEFA. The class given is in vivo, Avena fatua. The settings on record: Avena fatua, 504 h, 20 g/ha, visual assessment about 3 weeks after treatment, 100% = plants have died, 0% = like control plants. A digest of the protocol: as §2
For assay [16], the system named is ECHCG. Kind of assay: Post-emergence herbicidal action against ECHCG. The format is in vivo, Echinochloa crus-galli. Conditions: Echinochloa crus-galli, 504 h, dosage 20 g/ha. Summed up: as §2
In assay [17] the test system is SETVI. Kind of assay: Post-emergence herbicidal action against SETVI. The format is in vivo, Setaria viridis. The settings on record: Setaria viridis, 504 h, dosage 20 g/ha. Summed up: as §2
The test system of assay [18] is STEME. Kind of assay: Post-emergence herbicidal action against STEME. The settings on record: Stellaria media, 504 h. The format is in vivo, Stellaria media. A digest of the protocol:
as §2

The subject of assay [19] is DIGSA. Kind of assay: Post-emergence herbicidal action against DIGSA. The class given is in vivo, Digitaria sanguinalis. The settings on record: Digitaria sanguinalis, 504 h. A digest of the protocol: as §2

For the molecule `CNC(=O)c1c(Cl)ccc(C(=O)Nc2nnnn2C)c1C` [Example 1-4], the pest or weed control at 80 g/ha in assay [1] amounted to 100%; in assay [2], 80%; in assay [3] (80 g/ha), 100%; in [4], 90%; in assay [5], 90%; in assay [6], 80%. The pest or weed control at 80 g/ha in assay [7] turned out to be 100%; in assay [8], 100%; in [9], 90%; in assay [10] (dosage 80 g/ha), 90%; in [11], 100%. Besides, the pest or weed control at 20 g/ha in [3] (20 g/ha) came to 90%; in assay [10] (dosage 20 g/ha) it was 80%; in assay [12] (dosage 20 g/ha), 90%; in [13], 80%; in [14], 90%; in assay [15], 80%. The pest or weed control at 20 g/ha in assay [16] was 100%; in [17] it was 80%; in [18] (20 g/ha) it was 90%; in assay [19] (20 g/ha), 90%. For the same molecule, the pest or weed control at 5 g/ha in assay [12] (dosage 5 g/ha) amounted to 90%; in [18] (dosage 5 g/ha), 80%; in [19] (5 g/ha), 80%.

A word on the pest or weed control: it is the degree to which the test organism was suppressed or injured, in per cent. Read a low pest or weed control as weak suppression.
